One data set deals with NS3/4A protease gt 1b (Hepatitis C virus genotype 1b, UniProt P26663). Description: HCV NS3 protease time-resolved fluorescence (TRF) assay, NS3/4A inhibitory activity (Ki), gt 1b. The format is biochemical. The following applies: NS3/4A enzyme. How it is done: (§1) The HCV NS3 protease inhibitory activity of the present compounds may be tested using assays known in the art. One such assay is HCV NS3 protease time-resolved fluorescence (TRF) assay as described below and in WO 2006/102087. Other examples of such assays are described in, for example, WO 2005/046712. HCV NS3 protease inhibitors, such as those described herein have a Ki less than 50 μM, such as less than 10 μM, and less than 100 nM. Ki is determined by an NS3 protease assay. The assay is performed in a final volume of 100 μl in assay buffer containing 50 mM HEPES, pH 7.5, 150 mM NaCl, 15% glycerol, 0.15% TRITON X-100, 10 mM DTT, and 0.1% PEG 8000. NS3 protease is preincubated with various concentrations of inhibitors in DMSO for 30 minutes. The reaction is initiated by adding the TRF peptide substrate (final concentration 100 nM). NS3 mediated hydrolysis of the substrate is quenched after 1 hour at room temperature with 100 μl of 500 mM MES, pH 5.5. Product fluorescence is detected using either a VICTOR V2 or FUSION fluorophotometer (PERKIN ELMER LIFE AND ANALYTICAL SCIENCES) with excitation at 340 nm and emission at 615 nm with a 400 μs delay. Testing concentrations of different enzyme forms are selected to result in a signal to background ratio (SIB) of 10-30. IC50 values are derived using a standard four-parameter fit to the data. Ki values are derived from IC50 values using the following formula, IC50=Ki(1+[S]/KM), Eqn (1), where [S] is the concentration of substrate peptide in the reaction and KM is the Michaelis constant. See Paola Gallinari et al., Modulation of Hepatitis C Virus NS3 Protease and Helicase Activities through the Interaction with NS4A, 38 BIOCHEM. 5620 (1999); Paola Gallinari et al., Multiple Enzymatic Activities Associated with Recombinant NS3 Protein of Hepatitis C Virus, 72(8) J. VIROLOGY 6758 (1998); Mariana Taliani et al., A Continuous Assay of Hepatitis C Virus Protease Based on Resonance Energy Transfer Depsipeptide Substrates, 240 ANAL. BIOCHEM. 60 (1996).
(§2) This NS3 protease assay was performed in a final volume of 100 μl assay buffer containing 50 mM HEPES, pH 7.5, 150 mM NaCl, 15% glycerol, 0.15% TRITON X-100, 10 mM DTT, and 0.1% PEG 8000. NS3/4A protease was pre-incubated with various concentrations of inhibitors in DMSO for 30 minutes. The reaction was initiated by adding the TRF peptide substrate (final concentration 100 nM). NS3 mediated hydrolysis of the substrate was quenched after 1 hour at RT with 100 μl of 500 mM MES, pH 5.5. Product fluorescence was detected using either a V1CTOR V2 or FUSION fluorophotometer (PERKIN ELMER LIFE AND ANALYTICAL SCIENCES) with excitation at 340 nm and emission at 615 nm with a 400 us delay. Testing concentrations of different enzyme forms were selected to result in a signal to background ratio (SIB) of 10-30. IC50 values were derived using a standard four-parameter fit to the data. K, values are derived from IC50 values using the following formula, IC50=Ki(1+[S]/KM), Eqn (1), where [S] is the concentration of substrate peptide in the reaction and KM is the Michaelis constant. See Paola Gallinari et al., Modulation of Hepatitis C Virus NS3 Protease and Helicase Activities through the Interaction with NS4A, 38 BIOCHEM. 5620 (1999); Paola Gallinari et al., Multiple Enzymatic Activities Associated with Recombinant NS3 Protein of Hepatitis C Virus, 72(8) J. VIROLOGY 6758 (1998); Mariana Milani et al., A Continuous Assay of Hepatitis C Virus Protease Based on Resonance Energy Transfer Depsipeptide Substrates, 240 ANAL. BIOCHEM. 60 (1996); Shi-Shan Mao et al., A time-resolved, internally quenched fluorescence assay to characterize inhibition of hepatitis C virus nonstructural protein 3-4A protease at low enzyme concentrations, 373 ANALYTICAL BIOCHEMISTRY 1 (2008). Measuring Compound Inhibitory Potency (Replicon EC50 (nM))

For data set [1], the target named is NS3/4A protease gt 1b A156V (Hepatitis C virus genotype 1b, UniProt P26663, A1182V). Description: HCV NS3 protease time-resolved fluorescence (TRF) assay, NS3/4A inhibitory activity (Ki), gt 1b A156V. The format is biochemical. How it is done: as §1, §2
A further data set deals with NS3/4A protease gt 3a (Hepatitis C virus genotype 3a, UniProt Q81258). Description: HCV NS3 protease time-resolved fluorescence (TRF) assay, NS3/4A inhibitory activity (Ki), gt 3a. The following applies: NS3/4A enzyme. It counts as biochemical. How it is done: as §1, §2
For a further data set, the system named is HCV gt 1b replicon. Description: HCV replicon assay, compound inhibitory potency (Replicon EC50). The note with it: Hepatitis C virus, GT1B. It counts as cell-based. As for the experimental part:
Measurement of inhibition by compounds was performed using the HCV replicon system. Several different replicons encoding different HCV genotypes or mutations were used. In addition, potency measurements were made using different formats of the replicon assay, including different ways of measurements and different plating formats. See Jan M. Vrolijk et al., A replicon-based bioassay for the measurement of interferons in patients with chronic hepatitis C, 110 J. VIROLOGICAL METHODS 201 (2003); Steven S. Carroll et al., Inhibition of Hepatitis C Virus RNA Replication by 2′-Modified Nucleoside Analogs, 278(14) J. BIOLOGICAL CHEMISTRY 11979 (2003). However, the underlying principles are common to all of these determinations, and are outlined below.
Stable neomycin phosphotransferase encoding replicon-harboring cell lines were used, so all cell lines were maintained under G418 selection prior to the assay. In some cases the cell lines encoded a luciferase:NEO FUSION and could be assayed either directly by determination of RNA copy number, or indirectly through measurement of the luciferase activity.
To initiate an assay, replicon cells were plated in the presence of a dilution series of test compound in the absence of G418. Typically, the assays were performed in a 96-well plate format for manual operation, or a 384-well plate in an automated assay. Replicon cells and compound were incubated for 24 to 48 hours, depending on the assay. At the end of the assay, cells are washed free of media and compound and then lysed. For direct quantitation, RNA levels were measured by 32P-probe hybridization and protection, or in a TAQMAN-based assay and normalized to cellular cyclophilin A RNA levels. In some cases, luciferase activity was measured using a conventional luciferase assay. In all cases, EC50 determinations were calculated as a percent of a DMSO control by fitting the data to a four-parameter fit function.
For orientation: Replicon systems follow genome replication, usually without infectious particles.

The nature of data set [2]: Plasma and liver concentrations and pharmacokinetics (Rat PK). It counts as in vivo. Also on record: Rat PK 5 mpk AUC: unit not given here. The note with it: for concentration at 4 h: 5 mg/kg, 5 mpk, liver concentration at 4 h; for Rat PK 5 mpk AUC: area under the plasma concentration/time curve. As for the experimental part: Test compounds were dissolved in a suitable dosing vehicle for i.v. administration (e.g., 20%:60%:20% DMSO:PEG400:H2O) or per oral administration (e.g., 10% POLYSORBATE80:90% H2O or 100% PEG400). Animals were administered (n=2 or 3) using a crossover study design for non-rodents. Plasma samples were collected at time points between 2 minutes and 24 hours, and compound levels were determined by RP-LC/MS/MS. Liver samples were collected post-mortem in rat. Liver samples were weighed, homogenized, and diluted using techniques known to those skilled in the art, and compound levels were determined by RP-LC/MS/MS.
Pharmacokinetic parameters were calculated based on non-compartmental analysis (e.g., using WATSON, WINNOLIN). Predose concentrations that were below the limit of quantitation (BLQ) were assigned a value of 0, Standard pharmacokinetic parameters CLp, Vdss, half-life (only for IV), % F, Cmax, Tmax, AUC0-last, AUC0-infinity were calculated. AUC values were calculated using linear trapezoidal method for ascending concentrations and the log trapezoidal method for descending concentrations.

The mark [3] stands for this setting: 10% fetal bovine serum, read-out: gt 1b Replicon EC50 10% FBS.
Setting [4] is: 50% normal human serum, read-out: gt 1b Replicon EC50 50% NHS.

SMILES strings stand for the structures. Where two headings read alike, the source gives them in different places.

One may read the Ki as a measure of affinity in units of concentration, obtained from inhibition or displacement. As usually defined, the EC50 is the midpoint of the concentration-response curve.

Consider `COc1ccc2nc3c(nc2c1)O[C@@H]1C[C@H]2C(=O)N[C@]4(C(=O)NS(=O)(=O)C5(C)CC5)C[C@H]4/C=C\CCCCC[C@H](NC(=O)O[C@]4(C)C[C@H]4CCCCC3)C(=O)N2C1` [Example 6, (3R,20R,22R,26S,32Z,34S,36R,39S)-9-Methoxyl-22-methyl-N-[(1-methylcyclopropyl)sulfonyl]-24,38,40-trioxo-4,23-dioxa-1,6,13,25,37-pentaazaheptacyclo[24.13.1.1^3,39.0^5,14.0^7,12.0^20,22.0^34,36]hentetraconta-5,7,9,11,13,32-hexaene-36-carboxamide], for which the Ki on NS3/4A protease gt 1b worked out at 30 pM; in data set [1] it was 600 pM; on NS3/4A protease gt 3a it was 320 pM. Also, the EC50 in the data set with HCV gt 1b replicon (setting [3]) was 1000 pM; in the data set on HCV gt 1b replicon (setting [4]) it was 4000 pM. The same compound had a concentration at 4 h in data set [2] of 24 µM. Further, the “Rat PK 5 mpk AUC” value in data set [2] was found to be 0.16.
As to `CC1(S(=O)(=O)NC(=O)[C@@]23C[C@H]2/C=C\CCCCC[C@@H]2NC(=O)O[C@@H]4CCC[C@H]4CCCCCc4nc5ccccc5nc4O[C@@H]4C[C@@H](C(=O)N3)N(C4)C2=O)CC1` [Example 7, (3R,20R,24R,28S,34Z,36S,38R,41S)—N-[(1-Methylcyclopropyl)sulfonyl]-26,40,42-trioxo-4,25-dioxa-1,6,13,27,39-pentaazaheptacyclo[26.13.1.1^3,41.0^5,14.0^7,12.0^20,24.0^36,38]tritetraconta-5,7,9,11,13,34-hexaene-38-carboxamide], the values for the Ki (on NS3/4A protease gt 1b; in data set [1]; on NS3/4A protease gt 3a) were 20 pM, 1200 pM and 720 pM, respectively. Besides, the results for the EC50 with HCV gt 1b replicon (setting [3]) and in the data set on HCV gt 1b replicon (setting [4]) were 2000 pM and 10000 pM, respectively. Also, the concentration at 4 h in data set [2] was determined as 41 µM. Besides, in data set [2], the “Rat PK 5 mpk AUC” value is on record as 1.35.
Take `O=C1N[C@H]2CCCCC/C=C\[C@@H]3C[C@@]3(C(=O)NS(=O)(=O)C3CC3)NC(=O)[C@@H]3C[C@H](CN3C2=O)Oc2nc3ccccc3nc2CCCCC[C@@H]2C[C@H]2O1` [Example 8, (3R,20R,22R,26S,32Z,34S,36R,39S)—N-(Cyclopropylsulfonyl)-24,38,40-trioxo-4,23-dioxa-1,6,13,25,37-pentaazaheptacyclo[24.13.1.1^3,39.0^5,14.0^7,12.0^20,22.0^34,36]hentetraconta-5,7,9,11,13,32-hexaene-36-carboxamide]: the results for the Ki (at NS3/4A protease gt 1b; in data set [1]; at NS3/4A protease gt 3a) were 20 pM, 900 pM and 490 pM, respectively. The EC50 turned out to be 1000 pM with HCV gt 1b replicon (setting [3]) and 13000 pM with HCV gt 1b replicon (setting [4]). Besides, the concentration at 4 h in data set [2] amounted to 7 µM. Besides, the “Rat PK 5 mpk AUC” value in data set [2] worked out at 0.06.
Take `CC1(S(=O)(=O)NC(=O)[C@@]23C[C@H]2/C=C\CCCCC[C@@H]2NC(=O)O[C@@H]4C[C@H]4CCCCCc4nc5ccccc5nc4O[C@@H]4C[C@@H](C(=O)N3)N(C4)C2=O)CC1` [Example 9, (3R,20R,22R,26S,32Z,34S,36R,39S)—N-[(1-Methylcyclopropyl)sulfonyl]-24,38,40-trioxo-4,23-dioxa-1,6,13,25,37-pentaazaheptacyclo[24.13.1.1^3,39.0^5,14.0^7,12.0^20,22.0^34,36]hentetraconta-5,7,9,11,13,32-hexaene-36-carboxamide]: the Ki at NS3/4A protease gt 1b was 30 pM; in data set [1], 800 pM; at NS3/4A protease gt 3a, 520 pM. For the same compound, the EC50 in the data set with HCV gt 1b replicon (setting [3]) was 2000 pM; in the data set on HCV gt 1b replicon (setting [4]) it was 11000 pM. In data set [2], the concentration at 4 h was 20 µM. In data set [2], the “Rat PK 5 mpk AUC” value was 0.26.
As for `C[C@@]12C[C@H]1CCCCCc1nc3ccccc3nc1O[C@@H]1C[C@H]3C(=O)N[C@]4(C(=O)NS(=O)(=O)C5CC5)C[C@H]4/C=C\CCCCC[C@H](NC(=O)O2)C(=O)N3C1` [Example 10, (3R,20R,22R,26S,32Z,34S,36R,39S)—N-(Cyclopropylsulfonyl)-22-methyl-24,38,40-trioxo-4,23-dioxa-1,6,13,25,37-pentaazaheptacyclo[24.13.1.1^3,39.0^5,14.0^7,12.0^20,22.0^34,36]hentetraconta-5,7,9,11,13,32-hexaene-36-carboxamide], the inhibitory constant (Ki) was 20 pM at NS3/4A protease gt 1b, 600 pM in data set [1] and 350 pM at NS3/4A protease gt 3a. Also, the EC50 with HCV gt 1b replicon (setting [3]) worked out at 1000 pM; in the data set on HCV gt 1b replicon (setting [4]), 5000 pM. The same compound displayed a concentration at 4 h in data set [2] of 15 µM. In addition, in data set [2], the “Rat PK 5 mpk AUC” value is 0.6.

The values are drawn from patent publication US8828930B2, “Hepatitis C virus NS3 protease inhibitors” (Merck Sharp & Dohme Corp., priority 2009, dated 2014).
